Experimental data published in patent US6921774B2, “Compounds and their use as glycine transport inhibitors” (H. Lundbeck A/S, priority 2000, dated 2005).
Where a name gives a salt, the structure may show the parent alone.

Target: T1, human GlyT-1b (Homo sapiens, UniProt P48067)
T1 construct: expressed in transfected cells
T1 sequence (P48067 1-652 isoform P48067-3): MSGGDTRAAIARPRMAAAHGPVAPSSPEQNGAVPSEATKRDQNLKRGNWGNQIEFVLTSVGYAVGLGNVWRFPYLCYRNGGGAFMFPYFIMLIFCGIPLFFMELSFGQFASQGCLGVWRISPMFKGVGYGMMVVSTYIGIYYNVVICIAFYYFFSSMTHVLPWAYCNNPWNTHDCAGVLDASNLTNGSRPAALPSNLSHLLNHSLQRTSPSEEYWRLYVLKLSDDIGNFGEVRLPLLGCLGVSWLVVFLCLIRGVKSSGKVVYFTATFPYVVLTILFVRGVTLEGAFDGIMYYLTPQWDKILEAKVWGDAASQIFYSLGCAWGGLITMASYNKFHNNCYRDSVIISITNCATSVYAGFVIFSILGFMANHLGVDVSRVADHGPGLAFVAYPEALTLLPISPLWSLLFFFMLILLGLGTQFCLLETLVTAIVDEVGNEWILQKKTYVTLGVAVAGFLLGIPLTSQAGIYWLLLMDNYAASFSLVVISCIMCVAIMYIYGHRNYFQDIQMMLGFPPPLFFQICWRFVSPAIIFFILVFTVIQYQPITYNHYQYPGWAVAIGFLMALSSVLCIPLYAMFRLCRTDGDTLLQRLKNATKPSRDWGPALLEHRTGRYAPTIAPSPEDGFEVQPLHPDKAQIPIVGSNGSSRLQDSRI
Assay: [3H]-Glycine uptake in cells transfected with human GlyT-1b
Assay type: cell-based
Conditions: 6 min pre-incubation, 10 nM 3H-glycine, 15 min, read-out: IC50 GlyT-1b (Inhibition of Glycine Transport by hGlyT-)
Description: The compounds of the invention were tested in a well-recognised and reliable test measuring glycine uptake:
Cells transfected with the human GlyT-1b were seeded in 96 well plates. Prior to the experiment the cells were washed twice in HBS (10 mM Hepes-tris (pH 7.4), 2.5 mM KCl, 1 mM CaCl2, 2.5 mM MgSO4,) and pre-incubated with test compound for 6 minutes. Afterwards, 10 nM ^3H-glycine was added to each well and the incubation was continued for 15 minutes. The cells were washed twice in HBS. Scintillation fluid was added and the Plates were counted on a Trilux (Wallac) scintillation counter.

Q: Which IC50 does the source give for `C[C@@H](C(=O)O)N(C)CCCC1(c2ccc(Cl)cc2)CCc2cc(Cl)ccc21` (some centres unmarked) [Compound 3aa, N-{3-[5-Chloro-1-(4-chloro-phenyl)-indan-1-yl]-propyl}-N-methylalanine hydrochloride] here?
A: The IC50 was 0.47 µM.

Q: Which IC50 does the source give for `CN(CCCC1(c2ccc(Cl)cc2)OCc2cc(Br)ccc21)CC(=O)O` (centres unmarked) [Compound 3ae, N-{3-[5-Bromo-1-(4-chlorophenyl)-1,3-dihydroisobenzofuran-1-yl]-1-propyl}-N-methylglycine] here?
A: Its IC50 is 4 µM.

Q: How did the IC50 turn out when `CN(CCC1(c2ccc(Cl)cc2)OC(C)(C)c2ccccc21)CC(=O)O` (centres unmarked) [Compound 3af, N-{2-[1-(4-Chloro-phenyl)-3,3-dimethyl-1,3-dihydro-isobenzofuran-1-yl]-ethyl}-N-methylglycine] was run?
A: The IC50 was 3.5 µM.

Q: How did the IC50 turn out when `Cc1ccc(-c2ccc3c(c2)COC3(CCN(C)CC(=O)O)c2ccc(Cl)cc2)cc1` (centres unmarked) [Compound 3al, N-{3-[1-(4-Chloro-phenyl)-5-(4-methyl-phenyl)-1,3-dihydro-isobenzofuran-1-yl]-ethyl}-N-methyl-glycine] was run?
A: Its IC50 is 2.2 µM.

Q: For `CN(CCCC1(c2ccc(Cl)cc2)OCc2c(Cl)cccc21)CC(=O)O` (centres unmarked) [Compound 3k, N-{3-[4-chloro-1-(4-chlorophenyl)-1,3-dihydroisobenzofuran-1-yl]-1-propyl}-N-methylglycine hydrochloride.], which IC50 is on record?
A: Its IC50 is 4.1 µM.

Q: For `C[C@@H](C(=O)O)N(C)CCCC1(c2ccc(Cl)cc2)OCc2cc(Cl)ccc21` (some centres unmarked) [Compound 3l, N-{3-[5-chloro-1-(4-chlorophenyl)-1,3-dihydroisobenzofuran-1-yl]-1-propyl}-N-methylalanine hydrochloride], which IC50 is on record?
A: The IC50 was 5.5 µM.

Q: Which IC50 does the source give for `CN(CCCC1(c2ccc(Cl)cc2)OCc2ccc(Cl)cc21)CC(=O)O` (centres unmarked) [Compound 3m, N-{3-[6-chloro-1-(4-chlorophenyl)-1,3-dihydroisobenzofuran-1-yl]-1-propyl}-N-methylglycine hydrochloride.] here?
A: The IC50 was 7.2 µM.

Q: With `Cc1ccc(C2(CCCN(C)CC(=O)O)OCc3ccc(Cl)cc32)cc1` (centres unmarked) [Compound 3n, N-{3-[6-chloro-1-(4-methylphenyl)-1,3-dihydroisobenzofuran-1-yl]-1-propyl}-N-methylglycine hydrochloride.] as the compound, how does the IC50 read?
A: Its IC50 is 9.6 µM.

Q: How did the IC50 turn out when `Cc1cc(C2(CCCN(C)CC(=O)O)OCc3cc(C#N)ccc32)ccc1F` (centres unmarked) [Compound 3t, N-{3-[5-cyano-1-(3-methyl-4-fluorophenyl)-1,3-dihydroisobenzofuran-1-yl]-1-propyl}-N-methylglycine hydrochloride.] was run?
A: Its IC50 is 5.7 µM.

Q: Which IC50 does the source give for `COc1ccc(C2(CCCN(C)CC(=O)O)OCc3cc(C#N)ccc32)cc1` (centres unmarked) [Compound 3v, N-{3-[5-cyano-1-(4-methoxyphenyl)-1,3-dihydroisobenzofuran-1-yl]-1-propyl}-N-methylglycine hydrochloride] here?
A: Its IC50 is 8.6 µM.

Q: With `CN(CCCC1(c2ccc(Cl)cc2)CCc2cc(Cl)ccc21)CC(=O)O` (centres unmarked) [Compound 3z, N-{3-[5-Chloro-1-(4-chloro-phenyl)-indan-1-yl]-propyl}-N-methylglycine hydrochloride] as the compound, how does the IC50 read?
A: Its IC50 is 1.1 µM.

Q: With `CN(CCC1(c2ccc(Cl)cc2)OCc2cc(-c3cccs3)ccc21)CC(=O)O` (centres unmarked) [Compound 4c, N-{3-[1-(4-Chloro-phenyl)-5-(2-thiophenyl)-1,3-dihydro-isobenzofuran-1-yl]-ethyl}-N-methyl-glycine] as the compound, how does the IC50 read?
A: The IC50 was 1.2 µM.

Q: `Cc1ccc(-c2ccc3c(c2)COC3(CCCN(C)CC(=O)O)c2ccc(Cl)cc2)cc1` (centres unmarked) [Compound 4d, N-{3-[1-(4-Chloro-phenyl)-5-(4-methyl-phenyl)-1,3-dihydro-isobenzofuran-1-yl]-propyl}-N-methyl-glycine] was tested. Which IC50 did it give?
A: The IC50 was 1.5 µM.

Q: For `Cc1ccccc1-c1ccc2c(c1)COC2(CCN(C)CC(=O)O)c1ccc(Cl)cc1` (centres unmarked) [Compound 4j, N-{3-[1-(4-Chloro-phenyl)-5-(2-methyl-phenyl)-1,3-dihydro-isobenzofuran-1-yl]-ethyl}-N-methyl-glycine], which IC50 is on record?
A: The IC50 was 0.71 µM.

Q: For `CN(CCC1(c2ccc(Cl)cc2)OCc2cc(-c3cc(Cl)ccc3Cl)ccc21)CC(=O)O` (centres unmarked) [Compound 4k, N-{3-[1-(4-Chloro-phenyl)-5-(2,5-dichloro-phenyl)-1,3-dihydro-isobenzofuran-1-yl]-ethyl}-N-methyl-glycine], which IC50 is on record?
A: Its IC50 is 0.95 µM.

Q: “N-[2-(3-methyl-1-phenyl-indan-1-yl)-ethyl]-amino}-N-methyl alanine [Compound 3ak]” was tested. Which IC50 did it give?
A: The IC50 was 2.2 µM.

Q: How did the IC50 turn out when “N-{3-[1-(4-methylphenyl)-1,3-dihydroisobenzofuran-1-yl]-1-propyl}-N-methylglycine. hydrochloride [Compound 3f]” was run?
A: Its IC50 is 5.4 µM.
